Test results reported in patent publication US20230051589A1, “COMPOUNDS AND COMPOSITIONS FOR TREATING CONDITIONS ASSOCIATED WITH NLRP ACTIVITY” (Novartis AG, priority 2018, published 2023).

tested on: IL-1β production in PMA-differentiated THP-1 cells; assay: IL-1β production in PMA-differentiated THP-1 cells stimulated with gramicidin (hTHP-1 assay, 2% fetal bovine serum; Procedures 1-3); type: cell-based, human; settings: Homo sapiens, THP-1, Table B1; hTHP-1 assay containing 2% fetal bovine serum, gramicidin stimulation, IL-1β readout; read-out: hTHP-1 IC50 (average)
Outline: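 PMA-primed THP-1 cells (20 ng/ml PMA, 16-18 h) in RPMI with 2% FBS were pre-incubated with compounds for 1 h, from 100 μM downward in 3-fold steps (0.37% DMSO final), then stimulated with 5 μM gramicidin for 2 h. IL-1β in the supernatant was quantified by HTRF.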

Work on `CN1CCc2cc(S(N)(=O)=NC(=O)Nc3c4c(cc5c3CCC5)CCC4)sc2C1` (single isomer, unassigned) [Compound 413a] yielded an IC50 of 40 to 200 nM.

same assay, conditions: Homo sapiens, THP-1, Table B3; hTHP-1 assay containing 2% fetal bovine serum, gramicidin stimulation, IL-1β readout; read-out: hTHP-1 IC50

`NS(=O)(=NC(=O)Nc1c2c(cc3c1CC3)CCC2)c1cc2c(s1)CCNC2C(F)F` (single isomer, unassigned) [Example 782, (S) or (R) -4-(difluoromethyl)-N′-((2,4,5,6-tetrahydro-1H-cyclobuta[f]inden-3-yl)carbamoyl)-4,5,6,7-tetrahydrothieno[3,2-c]pyridine-2-sulfonimidamide] and `CCn1ccc(S(N)(=O)=NC(=O)Nc2c3c(cc4c2CCC4)CCC3)n1` (stereo not drawn) [Example 736, 1-Ethyl-N′-((1,2,3,5,6,7-hexahydro-s-indacen-4-yl)carbamoyl)-1H-pyrazole-3-sulfonimidamide] fall in the same range of IC50: 200 to 1000 nM for the first, 200 to 1000 nM for the second.

`NS(=O)(=NC(=O)Nc1c2c(cc3c1CC3)CCC2)c1cc2c(s1)CCNC2C(F)F` (stereo not drawn) [Example 781, 4-(Difluoromethyl)-N′-((2,4,5,6-tetrahydro-1H-cyclobuta[f]inden-3-yl)carbamoyl)-4,5,6,7-tetrahydrothieno[3,2-c]pyridine-2-sulfonimidamide] was tested, and the IC50 was 40 to 200 nM.

same assay, conditions: Homo sapiens, THP-1, hTHP-1 assay containing 2% fetal bovine serum, Table B2, class symbols; read-out: IC50

`NS(=O)(=NC(=O)Nc1c2c(cc3c1CCC3)CCC2)c1cnc(C(O)(CO)CO)s1` (stereo not drawn) [Example 460, N′-((1,2,3,5,6,7-hexahydro-s-indacen-4-yl)carbamoyl)-2-(1,2,3-trihydroxypropan-2-yl) thiazole-5-sulfonimidamide] and `CC(C)(CO)c1ncc([S@](N)(=O)=NC(=O)Nc2c3c(c(C#N)c4c2CCC4)CCC3)s1` [Compound 913b] fall in the same range of IC50: 40 to 200 nM for the first, 40 to 200 nM for the second.

First: CC(C)(O)c1ccc([S@](N)(=O)=NC(=O)Nc2c3c(cc4c2C(=O)CC4)CCC3)cn1 [Compound 804b]
Second: NS(=O)(=NC(=O)Nc1c2c(cc3c1CCC3)CCC2)c1ccc(C2CCCC2)nc1 (stereo not drawn) [Example 483, 6-Cyclopentyl-N′-((1,2,3,5,6,7-hexahydro-s-indacen-4-yl)carbamoyl)pyridine-3-sulfonimidamide]
The IC50 of the first is lower: 200 to 1000 nM for the first, 1000 to 5000 nM for the second.

Compared with `N[S@](=O)(=NC(=O)Nc1c2c(cc3c1CCC3)CCC2)c1ccc(C2CCNC2)cc1F` (single isomer, unassigned) [Example 501, (S) or (R)-2-fluoro-N′-((1,2,3,5,6,7-hexahydro-s-indacen-4-yl)carbamoyl)-4-(pyrrolidin-3-yl)benzenesulfonimidamide], `CC(OC(F)F)c1ccc(S(N)(=O)=NC(=O)Nc2c3c(cc4c2CCC4)CCC3)cc1` (stereo not drawn) [compound 452, 4-(1-(Difluoromethoxy)ethyl)-N′-((1,2,3,5,6,7-hexahydro-s-indacen-4-yl)carbamoyl)benzenesulfonimidamide] is lower in IC50: 5000 to 30000 nM for the first, 1000 to 5000 nM for the second.

First: CC(C)(O)c1ccnc([S@@](N)(=O)=NC(=O)Nc2c3c(c(C#N)c4c2CCC4)CCC3)c1 [Compound 818b]
Second: Cc1c(C2CC2)cc2c(c1NC(=O)N=S(N)(=O)c1cc(C(C)(C)O)cs1)CCC2 (stereo not drawn) [Example 465, N′-((6-cyclopropyl-5-methyl-2,3-dihydro-1H-inden-4-yl)carbamoyl)-4-(2-hydroxypropan-2-yl)thiophene-2-sulfonimidamide]
The IC50 of the first is higher: 200 to 1000 nM for the first, 40 to 200 nM for the second.

For `COCCNCc1ccc([S@](N)(=O)=NC(=O)Nc2c3c(cc4c2CCC4)CCC3)cc1` [Example 701, (R)-N′-((1,2,3,5,6,7-hexahydro-s-indacen-4-yl)carbamoyl)-4-(((2-methoxyethyl)amino)-methyl)benzenesulfonimidamide], the IC50 was 1000 to 5000 nM.

same assay, conditions: Table B1; hTHP-1 assay containing 2% fetal bovine serum, gramicidin stimulation, IL-1β readout; read-out: hTHP-1 IC50 (average)

First: COCCN(C)Cc1ccc(S(N)(=O)=NC(=O)Nc2c3c(cc4c2CCC4)CCC3)cc1 (single isomer, unassigned) [Example 390, (R) or (S)-N′-((1,2,3,5,6,7-hexahydro-s-indacen-4-yl)carbamoyl)-4-(((2-meth-oxyethyl)(methyl)amino)-methyl)benzenesulfonimid-amide]
Second: CC(c1ccc(S(N)(=O)=NC(=O)Nc2c3c(cc4c2CCC4)CCC3)cc1)N(C)C (stereo not drawn) [Example 266, 4-(1-(Dimethylamino)ethyl)-N′-(1,2,3,5,6,7-hexahydro-s-indacen-4-ylcarbamoyl)-benzenesulfonimidamide]
The IC50 of the first is higher: 1000 to 5000 nM for the first, 40 to 200 nM for the second.

same assay, conditions: Table B3; hTHP-1 assay containing 2% fetal bovine serum, gramicidin stimulation, IL-1β readout; read-out: hTHP-1 IC50

Compared with `CC(C)n1nc(S(N)(=O)=NC(=O)Nc2c3c(cc4c2C(=O)CC4)CCC3)cc1C(C)(C)O` (single isomer, unassigned) [Example 806, (S) or (R)-5-(2-hydroxypropan-2-yl)-1-isopropyl-N′-((3-oxo-1,2,3,5,6,7-hexahydro-5-indacen-4-yl)carbamoyl)-1H-pyrazole-3-sulfonimidamide], `CC(NC1CCC1)c1ccc(S(N)(=O)=NC(=O)Nc2c3c(cc4c2CC4)CCC3)c(F)c1` (single isomer, unassigned) [Example 850, (R, S) or (S, S) -4-(1-(cyclobutylamino)ethyl)-2-fluoro-N′-((2,4,5,6-tetrahydro-1H-cyclobuta[f]inden-3-yl)carbamoyl)benzenesulfonimidamide] is lower in IC50: > 30000 nM for the first, 5000 to 30000 nM for the second.

First: NS(=O)(=NC(=O)Nc1c2c(cc3c1CC3)CCC2)c1cc2c(s1)CCN[C@H]2C(F)F (single isomer, unassigned) [Example 877, (S or R,4R)-4-(difluoromethyl)-N′-((2,4,5,6-tetrahydro-1H-cyclobuta[f]inden-3-yl)carbamoyl)-4,5,6,7-tetrahydrothieno[3,2-c]pyridine-2-sulfonimidamide]
Second: NS(=O)(=NC(=O)Nc1c2c(cc3c1CC3)CCC2)c1cc2c(s1)CCN[C@@H]2C(F)F (single isomer, unassigned) [Example 874, (R or S,4S)-4-(difluoromethyl)-N′-((2,4,5,6-tetrahydro-1H-cyclobuta[f]inden-3-yl)carbamoyl)-4,5,6,7-tetrahydrothieno[3,2-c]pyridine-2-sulfonimidamide]
The IC50 of the first is higher: 1000 to 5000 nM for the first, 40 to 200 nM for the second.

Work on `CN1CCc2sc(S(N)(=O)=NC(=O)Nc3c4c(cc5c3CC5)CCC4)c(F)c2C1` (single isomer, unassigned) [Example 836, (S) or (R)-3-fluoro-5-methyl-N′-((2,4,5,6-tetrahydro-1H-cyclobuta[f]inden-3-yl)carbamoyl)-4,5,6,7-tetrahydrothieno[3,2-c]pyridine-2-sulfonimidamide] yielded an IC50 of 1000 to 5000 nM.

same assay, conditions: hTHP-1 assay containing 2% fetal bovine serum, Table B2, class symbols; read-out: IC50

`CC(C)n1nc(S(N)(=O)=NC(=O)Nc2c3c(c(C#N)c4c2CCC4)CCC3)cc1CO` (single isomer, unassigned) [Example 549, (S) or (R)-N′-((8-cyano-1,2,3,5,6,7-hexahydro-s-indacen-4-yl)carbamoyl)-5-(hydroxymethyl)-1-isopropyl-1H-pyrazole-3-sulfonimidamide] and `CC(O)(CO)c1cc(F)c(S(N)(=O)=NC(=O)Nc2c3c(c(C#N)c4c2CCC4)CCC3)s1` (single isomer, unassigned) [Example 632] fall in the same range of IC50: 5000 to 30000 nM for the first, 5000 to 30000 nM for the second.

First: CC(C)(O)c1cc(F)c(S(N)(=O)=NC(=O)Nc2c3c(cc4c2CCC4=O)CCC3)s1 (single isomer, unassigned) [Example 601, (S) or (R)-3-fluoro-5-(2-hydroxypropan-2-yl)-N′-((1-oxo-1,2,3,5,6,7-hexahydro-s-indacen-4-yl)carbamoyl)thiophene-2-sulfonimidamide]
Second: CC(C)(O)c1ncc(S(N)(=O)=NC(=O)Nc2c3c(c(Cl)c4c2CCC4)CCC3)s1 (single isomer, unassigned) [Example 597, (R) or (S)-N′-((8-chloro-1,2,3,5,6,7-hexahydro-s-indacen-4-yl)carbamoyl)-2-(2-hydroxypropan-2-yl)thiazole-5-sulfonimidamide]
The IC50 of the first is higher: 5000 to 30000 nM for the first, 40 to 200 nM for the second.

Compared with `CC(O)(CO)c1ncc(S(N)(=O)=NC(=O)Nc2c3c(c(C#N)c4c2CCC4)CCC3)s1` (mixture of isomers) [Example 635, (R,S) and (S,S)-N′-((8-cyano-1,2,3,5,6,7-hexahydro-indacen-4-yl)carbamoyl)-2-(1,2-dihydroxypropan-2-yl)thiazole-5-sulfonimidamide (mixture of two isomers)], `COCc1nc(C(C)(C)O)sc1S(N)(=O)=NC(=O)Nc1c2c(c(C#N)c3c1CCC3)CCC2` (stereo not drawn) [Example 454, N′-((8-cyano-1,2,3,5,6,7-hexahydro-s-indacen-4-yl)carbamoyl)-2-(2-hydroxypropan-2-yl)-4-(methoxymethyl)thiazole-5-sulfonimidamide] is lower in IC50: 5000 to 30000 nM for the first, 200 to 1000 nM for the second. The second is the more potent here.

`NS(=O)(=NC(=O)Nc1c2c(cc3c1CCC3)CCC2)c1ccc(C2CCNC2)cc1F` (single isomer, unassigned) [Example 625, (S,R) or (R,R)-2-fluoro-N′-((1,2,3,5,6,7-hexahydro-s-indacen-4-yl)carbamoyl)-4-pyrrolidin-3-yl) benzenesulfonimidamide] and `CN(C)C(c1ccc(S(N)(=O)=NC(=O)Nc2c3c(cc4c2CCC4)CCC3)cc1)C1CC1` (single isomer, unassigned) [Example 660] fall in the same range of IC50: 200 to 1000 nM for the first, 200 to 1000 nM for the second.

First: NS(=O)(=NC(=O)Nc1c2c(cc3c1CCC3)CCC2)c1ccc(C2CCNC2)cc1F (single isomer, unassigned) [Example 624, (R,R) or (S,R)-2-fluoro-N′-((1,2,3,5,6,7-hexahydro-s-indacen-4-yl)carbamoyl)-4-pyrrolidin-3-yl) benzenesulfonimidamide]
Second: CC(O)(CO)c1ncc(S(N)(=O)=NC(=O)Nc2c3c(c(C#N)c4c2CCC4)CCC3)s1 (single isomer, unassigned) [Example 636, (S,R) or (R,R)-N′-((8-cyano-1,2,3,5,6,7-hexahydro-s-indacen-4-yl)carbamoyl)-2-(1,2-dihydroxypropan-2-yl)thiazole-5-sulfonimidamide]
The IC50 of the first is higher: 200 to 1000 nM for the first, 40 to 200 nM for the second. The second is the more potent here.
